The text below walks through data of patent US5665760A, “Lyophilized thioxanthenone antitumor agents” (priority 1995, dated 1997).

“And” between values parts separate entries of the source, which are not always exact repeats. Equal values may be shown once.

Series [1] has as its system pancreatic ductal adenocarcinoma #03. Briefly: antitumor activity in mice against pancreatic ductal adenocarcinoma #03 (Panc 03). Format: in vivo.
The test system of the next series is Mammary 16/C/Adr. Description: antitumor activity in mice against Mammary 16/C/Adr (adriamycin resistant). Format: in vivo. As to the method:
(§1) Representative examples of the invention were tested for antitumor activity in mice according to the following procedure:
(§2) The animals were pooled, implanted subcutaneously with 30 to 60 mg tumor fragments by 12-gauge trocar, and again pooled before unselective distribution to the various treatment and control groups. For early-stage treatment, chemotherapy was started within 1 to 5 days after tumor implantation while the number of cells was relatively small (10^7 to 10^8 cells). For advanced-stage treatment, chemotherapy was delayed until the tumor became relatively large (200 to 300 mg in size). A 300-mg tumor contains approximately 3×10^8 total cells. Tumors within a given advanced-stage trial were within a 2.5-fold size range for 90% of the animals. Tumors were measured with a caliper weekly (or twice weekly for the more rapidly growing tumors). Mice were sacrificed when their tumors reached 1500 mg (i.e., before they can cause the animal discomfort). Tumor weights were estimated from two-dimensional measurements.
(§3) The treatment and control groups were measured when the control group tumors reached approximately 700 to 1200 mg in size (Median of Group). The median tumor weight of each group was determined (including zeros). The T/C value (weight of treated tumors over the weight of control tumors) in percent is an indication of antitumor effectiveness: A T/C equal to or less than 42% is considered significant antitumor activity by the Drug Evaluation Branch of the Division of Cancer Treatment (NCl). A T/C value <10% is considered to indicate highly significant antitumor activity. A body weight loss nadir (mean of group) of greater than 20% or greater than 20% drug-deaths is considered to indicate an excessively toxic dosage.

The test system of series [2] is Human Adeno Squamous Lung #125. Description: antitumor activity in mice against Human Adeno Squamous Lung #125. Format: in vivo. The conditions noted are these: 16 hr infusion days 7, 20.
The next series has as its system colon adenocarcinoma #38. Briefly: antitumor activity in mice against colon adenocarcinoma #38. In kind it is in vivo.
For a further series, the system named is Mammary 16/C. Briefly: antitumor activity in mice against Mammary 16/C. Format: in vivo. The settings on record: 4 hr infusion days 1, 4; for Tumor Free: 13 days of observation. The procedure: as §1
as §2, with “Tumors within a given advanced-stage trial were within a 2.5-fold size range for 90% of the animals.” left out
(§4) The treatment and control groups were measured when the control group tumors reached approximately 700 to 1200 mg in size (Median of Group). The median tumor weight of each group was determined (including zeros). […] A T/C value <10% is considered to indicate highly significant antitumor activity.

The test system of the next series is Colon #51. Briefly: antitumor activity in mice against Colon #51. In kind it is in vivo. The settings on record: 3 hr infusion days 3, 7; for Tumor Free: 50 days of observation. The procedure:
as §1, §2, §3

The conditions of series [3]: excipient alone; cited from earlier work.
Another series relates to Colon 51/A. Description: antitumor activity in mice against Colon 51/A. In kind it is in vivo. The conditions noted are these: p.o. days 3-7. The procedure:
as §1
as §2, with “Tumors within a given advanced-stage trial were within a 2.5-fold size range for 90% of the animals.” left out
as §4

The mark [4] stands for this setting: 960 mg/kg total, 3 hr infusion days 1, 4.
[5] abbreviates: 600 mg/kg total, 4 hr infusion days 6, 13.
Setting [6] is: 960 mg/kg total, 4 hr infusion days 6, 13.

The term T/C denotes the ratio of treated to control. With `CCN(CC)CCNc1ccc(CNC)c2sc3ccccc3c(=O)c12` [Example 5, 1-[[2-(Diethylamino)ethyl]amino]-4-[(methylamino)-methyl]thioxanthen-9-one], the T/C in series [1] is reported as 0%; with colon adenocarcinoma #38 (iv), 11%. The “T/C Value” was determined as 0% in series [1] (222 mg/kg total, 3 hr infusion); 23% in the series on Mammary 16/C/Adr (setting [4]); 15% in series [2] (600 mg/kg total); 16% in series [2] (960 mg/kg total); 9% in the series with colon adenocarcinoma #38 (477 mg/kg total, 3-15 bolus); 26% in the series on colon adenocarcinoma #38 (setting [5]). For the same compound, the “T/C Value” with colon adenocarcinoma #38 (732 mg/kg total, 3-15 bolus) came to 0%; in the series with colon adenocarcinoma #38 (setting [6]) it was 11%; in the series on Mammary 16/C (454 mg/kg total) it was 16%; in the series with Mammary 16/C (720 mg/kg total), 18%; in the series with Colon #51 (454 mg/kg total) it was 12%; with Colon #51 (720 mg/kg total) it was 8%. Besides, the “Wt. Loss at Nadir” value is on record as -1.6 g/mouse in series [1] (222 mg/kg total, 3 hr infusion); -2.8 g/mouse in the series with Mammary 16/C/Adr (setting [4]); -0.4 g/mouse in series [2] (600 mg/kg total); -0.4 g/mouse in series [2] (960 mg/kg total); -2.8 g/mouse in the series with colon adenocarcinoma #38 (477 mg/kg total, 3-15 bolus); -2.0 g/mouse in the series on colon adenocarcinoma #38 (setting [5]). For the same compound, the “Wt. Loss at Nadir” value in the series on colon adenocarcinoma #38 (732 mg/kg total, 3-15 bolus) is -2.0 g/mouse; with colon adenocarcinoma #38 (setting [6]) it was -2.9 g/mouse; in the series on Mammary 16/C (454 mg/kg total), -1.2 g/mouse; with Mammary 16/C (720 mg/kg total) it was -2.0 g/mouse; with Colon #51 (454 mg/kg total), -2.8 g/mouse; in the series on Colon #51 (720 mg/kg total) it was -1.1 g/mouse. In addition, the “Tumor Free” value is 1/4 in series [1] (222 mg/kg total, 3 hr infusion, 108 days of observation); 0/5 in series [2] (600 mg/kg total, 33 days of observation); 0/5 in series [2] (600 mg/kg total, 132 days of observation); 1/4 in series [2] (960 mg/kg total, 33 days of observation); 0/4 in series [2] (960 mg/kg total, 132 days of observation); 0/5 with colon adenocarcinoma #38 (477 mg/kg total, 3-15 bolus, 100 days of observation). Also, the “Tumor Free” value in the series with colon adenocarcinoma #38 (600 mg/kg total, 4 hr infusion days 6, 13, 20 days of observation) is 0/7; in the series on colon adenocarcinoma #38 (600 mg/kg total, 4 hr infusion days 6, 13, 100 days of observation), 0/7; in the series on colon adenocarcinoma #38 (732 mg/kg total, 3-15 bolus, 100 days of observation), 1/5; in the series on colon adenocarcinoma #38 (960 mg/kg total, 4 hr infusion days 6, 13, 20 days of observation), 2/7; with colon adenocarcinoma #38 (960 mg/kg total, 4 hr infusion days 6, 13, 100 days of observation) it was 1/7; in the series on Mammary 16/C (454 mg/kg total), 0/7. In addition, the “Tumor Free” value is listed as 0/7 with Mammary 16/C (720 mg/kg total), 0/7 in the series with Colon #51 (454 mg/kg total) and 0/5 in the series on Colon #51 (720 mg/kg total). For the same compound, the “Weight Loss” value is listed as 1.6 g in series [1] (Table 1, average body weight 25 g, total doses as in E1) and 2.9 g in the series on colon adenocarcinoma #38 (mouse, in vivo, iv). The “Drug Deaths” value in series [1] (Table 1, total doses as in E1) came out at 0; with colon adenocarcinoma #38 (Table 2, i.v., total dose mg/kg by Example: 2:600, 5:960, 6:132, 7:840, 16(a):1000, 18(e):180) it was 0. For the same compound, the “activity against colon adenocarcinoma #38” value in the series with colon adenocarcinoma #38 (300 mg/kg p.o.) is reported as “active”.

As to `[Cl-].[Na+]` [NaCl, sodium chloride], the “glass transition temperature of excipient” value in series [3] was -87 °C.

Regarding `OC[C@H]1O[C@@](CO)(O[C@H]2O[C@H](CO)[C@@H](O)[C@H](O)[C@H]2O)[C@@H](O)[C@@H]1O` [sucrose], the “glass transition temperature of excipient” value in series [3] was -32 °C.

As to `CCN(CC)CCNc1ccc(CN(C)S(C)(=O)=O)c2sc3ccccc3c(=O)c12` [Example 8(a), N-[[1-[[2-(Diethylamino)ethyl)amino]-9-oxothioxanthen-yl]methyl]N-methylmethanesulfonamide], the “Drug Deaths” value was 5/6 and 3/6 and 0/4 in the series with Mammary 16/C/Adr (mouse, in vivo); 0 in the series on colon adenocarcinoma #38 (mouse, in vivo). Also, the “T/C Value” in the series with colon adenocarcinoma #38 (112 mg/kg total, i.p. days 3-10) stood at 3%; in the series with colon adenocarcinoma #38 (196 mg/kg total, i.p. days 3-10), 0%; in the series with colon adenocarcinoma #38 (275 mg/kg total, p.o. days 3-7), 0%; in the series with colon adenocarcinoma #38 (340 mg/kg total, i.p. days 3-10), 0%; with colon adenocarcinoma #38 (550 mg/kg total, p.o. days 3-7), 0%; with Colon 51/A (250 mg/kg total) it was 16%. For the same compound, in the series with Colon 51/A (500 mg/kg total), the “T/C Value” was determined as 0%. Also, the “Wt. Loss at Nadir” value is recorded as -1.6 g/mouse in the series with Colon 51/A (250 mg/kg total) and -4.6 g/mouse in the series with Colon 51/A (500 mg/kg total).
